From EP0726261A1, “Herbidical 1,2,4 thiadiazoles” (American Cyanamid Company, priority 1995, dated 1996)

Columns and labels:
Type in all cases: in vivo
[1] = tested on: Triticum aestivum; test: Preemergence herbicidal activity (Example 67); parameters: herbicide rating, TRZAW: scale not given here; conditions: pre, 800 g/ha
Method: (§1) Herbicidal evaluation of compounds of the invention is conducted on the following plant species:
(§2) The soil is a prepared horticultural substrate containing 30% peat, 20% volcanic clay, 30% bark residues and 20% polyamide/styromull in a 1:3 mixture with loamy sand. Test solutions are prepared by dissolving the test compound in acetone containing 0.5% of an alkylphenol/ethylene oxide condensate under the trademark, TRITON® X-155, and diluting with water as needed. The test solutions are applied as a spray to the 3-6 week old seedling plants at dose rates corresponding to 800g/ha in a volume equivalent to 400 L/ha. A pneumatic spraying device employing a Teejet nozzle SS 8002E operating at 3 bar is used for a predetermined time. After spraying, the treated plants are placed on greenhouse benches and cared for in a manner commensurate with conventional greenhouse practice. After 10-21 days, the treated plants are evaluated and rated according to the rating system provided below.
(§3) The soil surface is then sprayed with test solutions as described in the postemergence evaluation hereinabove. After spraying, the treated cups are placed on greenhouse benches and cared for in the manner commensurate with conventional greenhouse practice. About 1-3 weeks after treatment the cups are evaluated and rated according to the rating system provided hereinabove.

[2] = tested on: Hordeum vulgare; test: Preemergence herbicidal activity (Example 67); parameters: herbicide rating, HORVW: scale not given here; conditions: pre, 800 g/ha
Method: as §1, §2, §3

[3] = tested on: Alopecurus myosuroides; test: Preemergence herbicidal activity (Example 67); parameters: herbicide rating, ALOMY: scale not given here; conditions: pre, 800 g/ha
Method: as §1, §2, §3

[4] = tested on: Setaria viridis; test: Preemergence herbicidal activity (Example 67); parameters: herbicide rating, SETVI: scale not given here; conditions: pre, 800 g/ha
Method: as §1, §2, §3

[5] = tested on: Abutilon theophrasti; test: Preemergence herbicidal activity (Example 67); conditions: pre, 800 g/ha
Method: as §1, §2, §3

[6] = tested on: Amaranthus retroflexus; test: Preemergence herbicidal activity (Example 67); conditions: pre, 800 g/ha
Method: as §1, §2, §3

[7] = tested on: Chenopodium album; test: Preemergence herbicidal activity (Example 67); conditions: pre, 800 g/ha
Method: as §1, §2, §3

[8] = tested on: Galium aparine; test: Preemergence herbicidal activity (Example 67); conditions: pre, 800 g/ha
Method: as §1, §2, §3

[9] = tested on: Helianthus annuus; test: Preemergence herbicidal activity (Example 67); conditions: pre, 800 g/ha
Method: as §1, §2, §3

[10] = tested on: Ipomoea hederacea; test: Preemergence herbicidal activity (Example 67); conditions: pre, 800 g/ha
Method: as §1, §2, §3

[11] = tested on: Veronica persica; test: Preemergence herbicidal activity (Example 67); conditions: pre, 800 g/ha
Method: as §1, §2, §3

[12] = tested on: Zea mays; test: Preemergence herbicidal activity (Example 67); conditions: pre, 800 g/ha
Method: as §1, §2, §3

[13] = tested on: Abutilon theophrasti; test: Postemergence herbicidal activity (Example 67); conditions: pos, 800 g/ha
Method: as §1, §2

[14] = tested on: Alopecurus myosuroides; test: Postemergence herbicidal activity (Example 67); conditions: pos, 800 g/ha
Method: as §1, §2

[15] = tested on: Amaranthus retroflexus; test: Postemergence herbicidal activity (Example 67); conditions: pos, 800 g/ha
Method: as §1, §2

[16] = tested on: Chenopodium album; test: Postemergence herbicidal activity (Example 67); conditions: pos, 800 g/ha
Method: as §1, §2

[17] = tested on: Galium aparine; test: Postemergence herbicidal activity (Example 67); conditions: pos, 800 g/ha
Method: as §1, §2

[18] = tested on: Helianthus annuus; test: Postemergence herbicidal activity (Example 67); conditions: pos, 800 g/ha
Method: as §1, §2

[19] = tested on: Hordeum vulgare; test: Postemergence herbicidal activity (Example 67); conditions: pos, 800 g/ha
Method: as §1, §2

[20] = tested on: Ipomoea hederacea; test: Postemergence herbicidal activity (Example 67); conditions: pos, 800 g/ha
Method: as §1, §2

[21] = tested on: Setaria viridis; test: Postemergence herbicidal activity (Example 67); conditions: pos, 800 g/ha
Method: as §1, §2

[22] = tested on: Triticum aestivum; test: Postemergence herbicidal activity (Example 67); conditions: pos, 800 g/ha
Method: as §1, §2

[23] = tested on: Veronica persica; test: Postemergence herbicidal activity (Example 67); conditions: pos, 800 g/ha
Method: as §1, §2

[24] = tested on: Zea mays; test: Postemergence herbicidal activity (Example 67); conditions: pos, 800 g/ha
Method: as §1, §2

[25] = rated about 1-3 weeks after treatment

Question: `COc1ccc(-c2nc(C(=O)NC(C)c3cccs3)ns2)cc1` (racemic) [Example 51, (R/S)-5-(4-Methoxyphenyl)-[1,2,4]thiadiazole-3-carboxylic acid, [1-(2-thienyl)ethyl]amide] was tested. Which “TRZ AW rating” value [1] did it give?
Answer: 2 (6-15%)

Question: And the “HOR VW rating” value [2]?
Answer: 2 (6-15%)

Question: What about the “ALO MY rating” value [3] of the same compound?
Answer: 3 (16-29%)

Question: What about the “SET VI rating” value [4] of the same compound?
Answer: 0

Question: What about the “ABU TH rating” value [5] of the same compound?
Answer: 3 (16-29%)

Question: What about the “AMA RE rating” value [6] of the same compound?
Answer: 5 (45-64%)

Question: And the “CHE AL rating” value [7]?
Answer: 0

Question: What about the “GAL AP rating” value [8] of the same compound?
Answer: 0

Question: What about the “HEL AN rating” value [9] of the same compound?
Answer: 1 (1-5%)

Question: And the “IPO HE rating” value [10]?
Answer: 0

Question: What about the “VER PE rating” value [11] of the same compound?
Answer: 0

Question: And the “ZEA MX rating” value [12]?
Answer: 0

Question: And the “ABU TH rating” value [13]?
Answer: 6 (65-79%)

Question: And the “ALO MY rating” value [14]?
Answer: 5 (45-64%)

Question: And the “AMA RE rating” value [15]?
Answer: 4 (30-44%)

Question: And the “CHE AL rating” value [16]?
Answer: 4 (30-44%)

Question: What about the “GAL AP rating” value [17] of the same compound?
Answer: 6 (65-79%)

Question: And the “HEL AN rating” value [18]?
Answer: 8 (91-99%)

Question: What about the “HOR VW rating” value [19] of the same compound?
Answer: 5 (45-64%)

Question: And the “IPO HE rating” value [20]?
Answer: 8 (91-99%)

Question: And the “SET VI rating” value [21]?
Answer: 8 (91-99%)

Question: What about the “TRZ AW rating” value [22] of the same compound?
Answer: 3 (16-29%)

Question: What about the “VER PE rating” value [23] of the same compound?
Answer: 8 (91-99%)

Question: And the “ZEA MX rating” value [24]?
Answer: 5 (45-64%)

Question: Which results are given for `CCCCc1nsc(C(=O)NCc2cccs2)n1` [Example 31]?
Answer: herbicide rating, TRZAW [1, 25]: 0; herbicide rating, HORVW [2, 25]: 0; herbicide rating, ALOMY [3, 25]: 0; herbicide rating, SETVI [4, 25]: 0; herbicide rating, ABUTH [5, 25]: 0; herbicide rating, AMARE [6, 25]: 0; herbicide rating, CHEAL [7, 25]: 0; herbicide rating, GALAP [8, 25]: 0; herbicide rating, HELAN [9, 25]: 0; herbicide rating, IPOHE [10, 25]: 0; herbicide rating, VERPE [11, 25]: 0; herbicide rating, ZEAMX [12, 25]: 0; herbicide rating, ABUTH ([13]; rated after 10-21 days): 1 (1-5%); herbicide rating, ALOMY ([14]; rated after 10-21 days): 2 (6-15%); herbicide rating, AMARE ([15]; rated after 10-21 days): 0; herbicide rating, CHEAL ([16]; rated after 10-21 days): 4 (30-44%); herbicide rating, GALAP ([17]; rated after 10-21 days): 2 (6-15%); herbicide rating, HELAN ([18]; rated after 10-21 days): 2 (6-15%); herbicide rating, HORVW ([19]; rated after 10-21 days): 0; herbicide rating, IPOHE ([20]; rated after 10-21 days): 3 (16-29%); herbicide rating, SETVI ([21]; rated after 10-21 days): 4 (30-44%); herbicide rating, TRZAW ([22]; rated after 10-21 days): 2 (6-15%); herbicide rating, VERPE ([23]; rated after 10-21 days): 0; herbicide rating, ZEAMX ([24]; rated after 10-21 days): 1 (1-5%)

Question: How did the “TRZ AW rating” value [1] turn out when `O=C(Nc1ccc(F)cc1)c1nsc(-c2cccc(C(F)(F)F)c2)n1` [Example 63] was run?
Answer: 2 (6-15%)

Question: And the “HOR VW rating” value [2]?
Answer: 0

Question: And the “ALO MY rating” value [3]?
Answer: 4 (30-44%)

Question: What about the “SET VI rating” value [4] of the same compound?
Answer: 2 (6-15%)

Question: And the “ABU TH rating” value [5]?
Answer: 0

Question: And the “AMA RE rating” value [6]?
Answer: 0

Question: And the “CHE AL rating” value [7]?
Answer: 0

Question: What about the “GAL AP rating” value [8] of the same compound?
Answer: 0

Question: And the “HEL AN rating” value [9]?
Answer: 0

Question: And the “IPO HE rating” value [10]?
Answer: 3 (16-29%)

Question: And the “VER PE rating” value [11]?
Answer: 0

Question: And the “ZEA MX rating” value [12]?
Answer: 0

Question: And the “ABU TH rating” value [13]?
Answer: 1 (1-5%)

Question: And the “ALO MY rating” value [14]?
Answer: 0

Question: And the “AMA RE rating” value [15]?
Answer: 0

Question: What about the “CHE AL rating” value [16] of the same compound?
Answer: 0

Question: What about the “GAL AP rating” value [17] of the same compound?
Answer: 0

Question: And the “HEL AN rating” value [18]?
Answer: 0

Question: What about the “HOR VW rating” value [19] of the same compound?
Answer: 1 (1-5%)

Question: And the “IPO HE rating” value [20]?
Answer: 0

Question: And the “SET VI rating” value [21]?
Answer: 3 (16-29%)

Question: And the “TRZ AW rating” value [22]?
Answer: 0

Question: And the “VER PE rating” value [23]?
Answer: 0

Question: And the “ZEA MX rating” value [24]?
Answer: 0

Question: For `O=C(Nc1cccc(F)c1)c1nsc(-c2cccc(C(F)(F)F)c2)n1` [Example 65], which “TRZ AW rating” value [1] is on record?
Answer: 2 (6-15%)

Question: And the “HOR VW rating” value [2]?
Answer: 0

Question: And the “ALO MY rating” value [3]?
Answer: 4 (30-44%)

Question: What about the “SET VI rating” value [4] of the same compound?
Answer: 0

Question: And the “ABU TH rating” value [5]?
Answer: 3 (16-29%)

Question: What about the “AMA RE rating” value [6] of the same compound?
Answer: 0

Question: And the “CHE AL rating” value [7]?
Answer: 1 (1-5%)

Question: What about the “GAL AP rating” value [8] of the same compound?
Answer: 0

Question: What about the “HEL AN rating” value [9] of the same compound?
Answer: 0

Question: And the “IPO HE rating” value [10]?
Answer: 3 (16-29%)

Question: What about the “VER PE rating” value [11] of the same compound?
Answer: 0

Question: And the “ZEA MX rating” value [12]?
Answer: 0

Question: What about the “ABU TH rating” value [13] of the same compound?
Answer: 0

Question: What about the “ALO MY rating” value [14] of the same compound?
Answer: 1 (1-5%)

Question: What about the “AMA RE rating” value [15] of the same compound?
Answer: 0

Question: And the “CHE AL rating” value [16]?
Answer: 0

Question: And the “GAL AP rating” value [17]?
Answer: 0

Question: And the “HEL AN rating” value [18]?
Answer: 0

Question: What about the “HOR VW rating” value [19] of the same compound?
Answer: 1 (1-5%)

Question: What about the “IPO HE rating” value [20] of the same compound?
Answer: 1 (1-5%)

Question: And the “SET VI rating” value [21]?
Answer: 0

Question: And the “TRZ AW rating” value [22]?
Answer: 3 (16-29%)

Question: And the “VER PE rating” value [23]?
Answer: 0

Question: What about the “ZEA MX rating” value [24] of the same compound?
Answer: 0
